This note sets out measurements from patent US20110262407A1, “TREATMENT WITH ALPHA7 SELECTIVE LIGANDS” (Targacept, Inc., priority 2008, published 2011).

Assay [1] concerns the target T1, alpha7 nAChR (Rattus norvegicus, UniProt Q05941).
T1 construct: displacement studies using ^3H-MLA in rat hippocampal tissues; from tissue; host or cells: rat hippocampus
Nature of the assay: displacement studies using 3H-MLA in rat hippocampal tissues. Type of assay: binding.

The test system of assay [2] is other nicotinic receptors, including alpha4beta2. Nature of the assay: binding affinity for other nicotinic receptors ([3H]-nicotine binding).
Assay [3] has as its system microglia. The settings on record: mice. An excerpt: The proliferation of microglial cells is an early event in the activation process in animal models of neuroinflammation. Microglial activation is thought to contribute to the pathology of many CNS neuro-inflammatory and neurodegenerative disorders.
The subject of assay [4] is hippocampal progenitor cells. The note with it: for proliferation of progenitor cells in the hippocampus: 129SvEv mice; for magnitude of increase in proliferation of hippocampal progenitor cells: oral gavage, vs vehicle.
Description: Since new neurons develop from the progenitor cells in the hippocampus, measuring the proliferation of this cell population may be used as an indicator of the full neurogenesis process. Hippocampal neurogenesis can be evaluated by measuring the incorporation of deuterium from heavy water into the DNA of progenitor cells and the rate of label incorporation reflects the rate of cellular proliferation. Fluoxetine, a known neurogenic antidepressant, was used as the positive control and as a comparator to the nicotinic ligands.
Mice were labeled for the last 10-11 days of the drug treatment period. Tissue processing and analysis: At the end of treatment and label, mice were sacrificed, the hippocampus was dissected from the brain and digested with papain and progenitor cells were isolated by Percoll fractionation. DNA was purified from the isolated progenitor cells using a DNEasy tissue kit (Qiagen, Valencia, Calif.), then processed and analyzed by GC/MS. DNA was enzymatically hydrolyzed to free deoxyribonucleosides, and the deoxyribose moiety of purine deoxyribonucleosides was converted to the pentafluorobenzyl triacetate derivative. […] Incorporation of ^2H into purine deoxyribose was quantified as the molar excess fraction M1 (EM1), i.e. the increase over natural abundance (background), determined from the fractional M1 value in unlabeled DNA standards from calf thymus.
Concurrent analysis of DNA from bone marrow cells, which are fully turned over in 1 week provides an internal reference factor in each animal to correct for variations in body water ^2H enrichment. The fraction of newly divided progenitor cells was calculated as the ratio of EM1 in purine deoxyribose from progenitor cell DNA to the corresponding EM1 from enrichment in bone marrow DNA.
Assay [5] addresses alpha4beta2 (Homo sapiens, UniProt P17787+P43681). Description: functional agonism at alpha4beta2. An excerpt:
[…]. […] […]

Assay [6] concerns the target T2, human alpha7 nicotinic receptors (Homo sapiens, UniProt P36544).
T2 construct: expressed in transfected cells; host or cells: Xenopus laevis oocytes (transient expression)
Nature of the assay: electrophysiology functional assay in Xenopus laevis oocytes. The class given is cell-based.

The subject of assay [7] is PC12 cells. Description: neuroprotection against Abeta(1-42) in PC12 cells. The class given is cell-based, rat. The source says:
It has been shown that nicotine-induced complex formation between the alpha7 nicotinic acetylcholine receptor (nAChR) and the tyrosine-phosphorylated enzyme Janus kinase 2 (JAK2) results in subsequent activation of phosphatidylinositol-3-kinase (PI-3-K) and Akt. Nicotine interaction with the alpha7 nAChR inhibits Aβ (1-42) interaction with the same receptor, and Aβ (1-42)-induced apoptosis is prevented through nicotine-induced activation of JAK2. These effects can be shown by measuring markers of cytotoxicity, including the cleavage of the nuclear protein poly(ADP-ribose) polymerase (PARP), the induction of caspase 3, or cell viability.
PC12, rat pheochromocytoma cells, were maintained in proliferative growth phase in Dulbecco's modified Eagle's medium supplemented with 10% horse serum, 5% fetal calf serum, and antibiotics (penicillin/streptomycin). Apoptosis was determined by assessing the cleavage of the DNA-repairing enzyme PARP using a Western blot assay. […] Caspase 3 enzyme activity was determined with a fluorogenic substrate for caspase-3 in crude PC12 cell extracts. […] The substrate emits a blue fluorescence when excited at a wavelength of 360 nm. When cleaved from the peptide by the caspase 3 enzyme activity in the cell lysate, free 7-amino-4-methyl Coumarin is released and can be detected by its yellow/green emission at 460 nm. […]

Assay [8] concerns GP8.3 cells. Description: ionizing radiation damage to rat brain vasculature endothelial cells. Type of assay: cell-based. As to the method:
Cells were cultured in α-MEM/Ham's F10, 10% FBS, 50 IU/mL penicillin, 50 μg/mL streptomycin, […] L-glutamine, and 250 μg/mL Geneticin and maintained in a humidified atmosphere containing 5% CO2 at 37° C. Intracellular reactive oxygen species (ROS) generation was measured in GP8.3 cells using 2′7′ dichlorodihydrofluorescein diacetate (DCFH-DA). Cells were incubated with 20 μM DCFH-DA in phosphate buffered saline (PBS) for 30 min prior to irradiation. The fluorescence intensity was measured at excitation wavelength 485 nm and emission wavelength 530 nm using a Bio-Tek FL500 microplate fluorescence reader. Western blot analysis: GP8.3 cells were collected following treatment and protein was separated by polyacrylamide gel electrophoresis (PAGE) on a 12% gel. Primary goat anti-ICAM-1 and mouse anti-β-actin were used. The secondary antibody was horse radish peroxidase (HRP)-conjugated secondary antibodies. Northern blot analysis: Total RNA was isolated using Tri-ZOL reagent. cDNA probes were labeled with α32P-dCTP by the random primer extension method. The cDNA of rat ICAM-1 was synthesized. Cell viability was determined using a modified 3-(4,5-Dimethylthiazol-2-yl)-2,5-Diphenyltetrazolium Bromide (MTT) assay. Briefly, 5,000 cells/well were plated in 24-well plates and incubated overnight. […] At the end of the follow-up period, cells were incubated with MTT in PBS for 4 h. Cell lysis detergent (20% SDS and 50% dimethylformamide, pH 4.7, in PBS) was then added and the plates incubated overnight at 37° C. A 100 μl aliquot of the soluble fraction was then transferred to 96-well microplates, and the absorbance at 570 nm measured using an Enzyme-Linked ImmunoSorbent Assay (ELISA) plate reader.

pKi: −log10 of the molar value. Where two headings read alike, the source gives them in different places.

T1 sequence (Q05941 23-502): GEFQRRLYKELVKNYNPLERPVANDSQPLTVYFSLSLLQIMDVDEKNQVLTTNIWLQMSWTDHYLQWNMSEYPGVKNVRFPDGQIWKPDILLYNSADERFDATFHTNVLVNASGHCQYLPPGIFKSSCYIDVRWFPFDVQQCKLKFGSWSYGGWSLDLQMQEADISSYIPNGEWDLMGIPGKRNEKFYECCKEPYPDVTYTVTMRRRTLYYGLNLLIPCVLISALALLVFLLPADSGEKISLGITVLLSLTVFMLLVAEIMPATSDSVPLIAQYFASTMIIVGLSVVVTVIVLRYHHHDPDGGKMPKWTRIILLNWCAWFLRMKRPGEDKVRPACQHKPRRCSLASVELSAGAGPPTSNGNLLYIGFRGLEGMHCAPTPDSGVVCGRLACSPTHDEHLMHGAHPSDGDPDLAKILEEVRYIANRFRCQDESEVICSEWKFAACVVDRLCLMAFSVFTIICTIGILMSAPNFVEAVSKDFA
T2 sequence (P36544 23-502): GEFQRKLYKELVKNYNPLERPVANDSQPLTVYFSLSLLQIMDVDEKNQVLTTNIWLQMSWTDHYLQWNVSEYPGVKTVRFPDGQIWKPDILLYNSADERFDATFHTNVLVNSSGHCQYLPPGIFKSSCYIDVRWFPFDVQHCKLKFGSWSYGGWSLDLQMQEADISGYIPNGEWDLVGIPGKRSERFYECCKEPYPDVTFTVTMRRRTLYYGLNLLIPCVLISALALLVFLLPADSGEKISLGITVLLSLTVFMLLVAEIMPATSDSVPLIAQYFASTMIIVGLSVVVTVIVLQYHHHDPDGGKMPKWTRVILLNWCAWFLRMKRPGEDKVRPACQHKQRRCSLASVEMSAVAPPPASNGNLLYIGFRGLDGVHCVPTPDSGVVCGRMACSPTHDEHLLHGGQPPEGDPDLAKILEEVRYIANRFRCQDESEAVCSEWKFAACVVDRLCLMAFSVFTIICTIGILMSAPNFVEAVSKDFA
Chain of alpha4beta2 (P43681 29-627 limits assumed): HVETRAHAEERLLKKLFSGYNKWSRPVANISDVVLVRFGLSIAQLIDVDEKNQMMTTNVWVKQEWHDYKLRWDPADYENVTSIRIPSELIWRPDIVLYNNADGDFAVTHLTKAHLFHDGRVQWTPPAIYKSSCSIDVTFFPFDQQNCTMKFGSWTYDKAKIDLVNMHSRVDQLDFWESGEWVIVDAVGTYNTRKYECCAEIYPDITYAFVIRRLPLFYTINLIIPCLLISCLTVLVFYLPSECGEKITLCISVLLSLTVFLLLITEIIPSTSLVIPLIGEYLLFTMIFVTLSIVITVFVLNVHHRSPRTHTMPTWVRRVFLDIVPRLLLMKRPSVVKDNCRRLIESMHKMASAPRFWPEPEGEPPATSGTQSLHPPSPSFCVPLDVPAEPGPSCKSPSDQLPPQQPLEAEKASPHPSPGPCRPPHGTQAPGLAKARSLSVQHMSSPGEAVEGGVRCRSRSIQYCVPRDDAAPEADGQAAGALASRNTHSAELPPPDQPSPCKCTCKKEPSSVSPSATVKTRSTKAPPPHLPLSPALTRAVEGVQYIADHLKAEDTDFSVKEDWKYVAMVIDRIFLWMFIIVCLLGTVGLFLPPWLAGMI
Chain of alpha4beta2 (P17787 26-502): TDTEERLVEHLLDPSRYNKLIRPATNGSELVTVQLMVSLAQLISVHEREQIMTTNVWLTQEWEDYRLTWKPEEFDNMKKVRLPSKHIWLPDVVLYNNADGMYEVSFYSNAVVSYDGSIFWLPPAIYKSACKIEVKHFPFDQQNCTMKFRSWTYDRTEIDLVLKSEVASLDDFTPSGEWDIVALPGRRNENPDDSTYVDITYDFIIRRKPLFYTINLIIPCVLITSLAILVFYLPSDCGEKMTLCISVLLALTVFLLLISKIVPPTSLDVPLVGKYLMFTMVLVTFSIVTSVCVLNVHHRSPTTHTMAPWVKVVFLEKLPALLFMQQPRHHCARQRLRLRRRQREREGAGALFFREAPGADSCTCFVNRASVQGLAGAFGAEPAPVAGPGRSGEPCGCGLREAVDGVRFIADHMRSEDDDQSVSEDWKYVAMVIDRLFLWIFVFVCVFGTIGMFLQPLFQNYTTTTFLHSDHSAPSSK

For `CN1CCCC1c1cccnc1` (centres unmarked) [Compound C, nicotine, reference compound], in assay [1] (displacement of [3H]-MLA), the “affinity for alpha7 nAChR” value was “high affinity”. Moreover, the “binding to alpha4beta2” value in assay [2] was “high affinity”. Moreover, the “LPS-induced neuroinflammation (microglial proliferation)” value in assay [3] (0.1 mg/kg p.o.) is given as “decreased LPS-induced neuroinflammation”. Besides, the “proliferation of progenitor cells in the hippocampus” value in assay [4] (repeat administration 1 mg/kg/day p.o.) is listed as “increase the proliferation of progenitor cells”.
For the molecule `CNCCC(Oc1ccc(C(F)(F)F)cc1)c1ccccc1` (centres unmarked) [fluoxetine, Fluoxetine, reference compound], in assay [4] (10 mg/kg po, 3 weeks, positive control), the “increase in proliferation of hippocampal progenitor cells” value worked out at 35%.
In turn, `c1cncc(C2CCC3CCN2CC3)c1` (centres unmarked) [Compound B, 2-(3-pyridinyl)-1-azabicyclo[3.2.2]nonane] gave a pKi in assay [1] of 8.70 to 9.00. For the same molecule, the “binding to alpha4beta2” value in assay [2] is recorded as “binds to alpha4beta2”. For the same molecule, the “functional agonism at alpha4beta2” value in assay [5] is reported as “not functionally agonistic”. In assay [6], this molecule registered a maximum response (Emax) of more than 50%. Moreover, in assay [7] (FIG. 10), the “cell survival in PC-12 cells exposed to lethal amounts of Abeta(1-42)” value was “neuroprotective”. In addition, the “neuroprotection against Aβ (1-42) via JAK2/PI-3K cascade (PARP cleavage)” value in assay [7] (PC12 cells) was “exerts neuroprotective effects”.
As to `CNC1(C)C2CCC(C2)C1(C)C` (centres unmarked) [mecamylamine, reference compound], in assay [8] (antagonist with Compound A), the “effect on the Compound A-induced changes (IL-6, ICAM-1, ROS)” value is “reversed”.
Take `Cc1ccc(C(=O)N[C@@H]2C3CCN(CC3)[C@H]2Cc2cccnc2)s1` [Compound A, 5-methyl-N-[(2S,3R)-2-(pyridin-3-ylmethyl)-1-azabicyclo[2.2.2]oct-3-yl]thiophene-2-carboxamide]: the “LPS-induced neuroinflammation (microglial proliferation)” value in assay [3] (1 mg/kg p.o.) is listed as “decreased LPS-induced neuroinflammation”. Also, the “radiation-induced up-regulation of ICAM1 mRNA and protein” value in assay [8] (pre-incubation (10 μM per FIG. 7)) is given as “ameliorated”. The “radiation-induced up-regulation of ROS” value in assay [8] (pre-incubation (10 μM per FIG. 8)) was “abolished”. The “radiation-induced up-regulation of IL-6 mRNA and protein” value in assay [8] (pre-incubation with 10 μM) is recorded as “abolished”. Besides, the “magnitude of increase in proliferation of hippocampal progenitor cells” value is 36% in assay [4] (0.1 mg/kg, 3 weeks); 24% in assay [4] (0.3 mg/kg, 3 weeks); 30% in assay [4] (1 mg/kg, 3 weeks). Besides, in assay [4] (repeat administration 0.1-1 mg/kg/day p.o.), the “proliferation of progenitor cells in the hippocampus” value is “increase the proliferation of progenitor cells”.

In general, pKi refers to −log10 of the Ki, conventionally taken in molar units. A higher pKi goes with a low Ki. In general, Emax refers to the size of the effect at its maximum, as opposed to the concentration needed.
